This is an account of results in patent US20060074131A1, “Novel crystalline polymorph of venlafaxine hydrochloride and methods for the preparation thereof” (Wyeth, priority 2001, published 2006).

Where a name gives a salt, the structure may show the parent alone.

In one data set the test system is muscaranic receptors. The settings on record: in vitro; cited from earlier work.
In another data set the test system is histaminergic receptors. As to conditions: in vitro; cited from earlier work.
For the next data set, the system named is monoamine oxidase. The settings on record: cited from earlier work.
Another data set has as its system adrenergic receptors. As to conditions: in vitro; cited from earlier work.
Data set [1] can be described thus: Intrinsic dissolution rate (USP 23 section 711, apparatus 2, compressed pellets in water). The class given is physicochemical. The settings on record: 900 mL water, 37° C., 100 rpm, pellet with exposed surface area 0.5 cm^2, UV 220 nm. The protocol: The intrinsic dissolution rates of Form II and the crystalline polymorph of the present invention were determined as follows. Pellets of venlafaxine hydrochloride were prepared by compressing 100 mg of each material in a die (Wood's apparatus) at 1000 psi for 1 minute with a Carver press. […] The dissolution rate in 900 mL of water was determined by USP 23 (1995), section 711, page 1791 (Dissolution, apparatus 2), with a rotation speed of 100 rpm at 37° C. The dissolution media was circulated through a 1.0 cm path microflow cell at a flow rate of 10 mL/minute. Ultraviolet absorbance was recorded at 220 nm.

A short description of data set [2]: Thermogravimetric analysis (TGA). The class given is physicochemical. As to conditions: heated from 28 to 238° C. at 10° C./minute under nitrogen purge. As to the method: A sample of the venlafaxine hydrochloride crystalline polymorph of the present invention was heated from 28 to 238° C. at a scan rate of 10° C./minute in a Pyris I TGA, available from Perkin-Elmer of Shelton, Conn., under a nitrogen purge.

For the compound `COc1ccc(C(CN(C)C)C2(O)CCCCC2)cc1` (stereo not drawn) [venlafaxine, 1-[2-(dimethylamino)-1-(4-methoxyphenyl)ethyl]cyclohexanol], the “affinity for muscaranic receptors” value in the data set on muscaranic receptors is “virtually no affinity”. Also, the “affinity for histaminergic receptors” value in the data set on histaminergic receptors is listed as “virtually no affinity”. Besides, the “inhibitory activity on monoamine oxidase” value in the data set on monoamine oxidase is recorded as “no inhibitory activity”. Besides, the “affinity for adrenergic receptors” value with adrenergic receptors is “virtually no affinity”.
`COc1ccc(C(CN(C)C)C2(O)CCCCC2)cc1` (stereo not drawn) [Form II, venlafaxine hydrochloride]: the intrinsic dissolution rate in data set [1] was 24.7 mg/cm^2-minute.
Turning to `COc1ccc(C(CN(C)C)C2(O)CCCCC2)cc1` (stereo not drawn) [venlafaxine hydrochloride], in data set [2], the “weight loss on heating (TGA)” value is “lost little weight until it was heated near the melting point”.
